Assay [1] has as its system S. aureus RN450. The assay can be described thus: In Vitro Anti-Bacterial Activity Assay (MIC), gram positive. It is filed as cell-based. Particulars: for MIC: Staphylococcus aureus, RN450, 18 h.
Assay [2] deals with E. coli mL308 225. The experiment in a line: In Vitro Anti-Bacterial Activity Assay (MIC), gram negative. It is filed as cell-based. Particulars: for MIC: Escherichia coli, ML308225, 18 h.
Setting [3] is: MIC class, Table 3 (Continued), read-out: Gram+ activity.
Setting [4] is: MIC class, Table 3 (Continued), read-out: Gram− activity.
The mark [5] stands for this setting: MIC class, Table 3, read-out: Antibiotic Activity Gram +.
The mark [6] stands for this setting: MIC class, Table 3, read-out: Antibiotic Activity Gram −.
[7] abbreviates: gram positive bacteria, read-out: Antibiotic Activity Gram + (MIC).
Where [8] appears, read: gram negative bacteria, read-out: Antibiotic Activity Gram − (MIC).

The structures appear in SMILES notation. Where two headings read alike, the source gives them in different places.

Take `C[C@H]1c2cccc(O)c2C(=O)C2=C(O)[C@]3(O)C(=O)C(C(N)=O)=C(O)[C@@H](N(C)C)[C@@H]3[C@@H](O)[C@@H]21` [drawing 3668]: the “Antibiotic Activity Gram + (MIC)” value in assay [1] (gram positive bacteria) is recorded as “** (compounds with MIC less than or equal to 4 μg/ml are indicated with **)”. Also, in assay [2] (gram negative bacteria), the “Antibiotic Activity Gram − (MIC)” value is listed as “* (compounds with an MIC of greater than 4 μg/ml are indicated with *)”.

Consider `CCc1ccc(O)c2c1C[C@H]1C[C@H]3[C@H](N(C)C)C(O)=C(C(N)=O)C(=O)[C@@]3(O)C(O)=C1C2=O`, for which the MIC in assay [1] (setting [3]) and in assay [2] (setting [4]) was < 4 µg/mL throughout.

Consider `CN(C)c1cc(C=O)c(O)c2c1C[C@H]1C[C@H]3[C@@H](N(C)C)C(O)=C(C(N)=O)C(=O)[C@@]3(O)C(O)=C1C2=O` [NM], for which the MIC in assay [1] (setting [5]) and in assay [2] (setting [6]) was < 4 µg/mL each time.

With `CCc1cc(CNCCC(F)(F)F)c(O)c2c1C[C@H]1C[C@H]3[C@H](N(C)C)C(O)=C(C(N)=O)C(=O)[C@@]3(O)C(O)=C1C2=O`, the MIC in assay [1] (setting [7]) and in assay [2] (setting [8]) was < 4 µg/mL throughout.

Consider `C[C@H]1c2ccc(N3CCCCC3)c(O)c2C(=O)C2=C(O)[C@]3(O)C(=O)C(C(N)=O)=C(O)[C@@H](N(C)C)[C@@H]3[C@@H](O)[C@@H]21` [JV], for which the MIC is < 4 µg/mL in assay [1] (setting [5]) and > 4 µg/mL in assay [2] (setting [6]).

In the case of `CN(C)c1cc(NC(=O)Oc2ccc(Cl)cc2)c(O)c2c1C[C@H]1C[C@H]3[C@H](N(C)C)C(O)=C(C(N)=O)C(=O)[C@@]3(O)C(O)=C1C2=O` [DP], the MIC in assay [1] (read-out: Antibiotic Activity Gram +) and in assay [2] (read-out: Antibiotic Activity Gram −) was > 4 µg/mL each time.

`CN(C)[C@@H]1C(O)=C(C(N)=O)C(=O)[C@@]2(O)C(O)=C3C(=O)c4c(O)ccc(-c5cccnc5)c4C[C@H]3C[C@@H]12`: the MIC in assay [1] (setting [7]) and in assay [2] (setting [8]) was < 4 µg/mL in each case.

`CN(C)c1cc(CN2CCCC2C(F)(F)F)c(O)c2c1C[C@H]1C[C@H]3[C@H](N(C)C)C(O)=C(C(N)=O)C(=O)[C@@]3(O)C(O)=C1C2=O` (some centres unmarked): the MIC in assay [1] (setting [7]) and in assay [2] (setting [8]) was < 4 µg/mL in each case.

With `C[C@H]1c2c(-c3ccccc3)cc(-c3ccccc3)c(O)c2C(=O)C2=C(O)[C@]3(O)C(=O)C(C(N)=O)=C(O)[C@@H](N(C)C)[C@@H]3[C@@H](O)[C@@H]21`, the MIC in assay [1] (setting [7]) and in assay [2] (setting [8]) was < 4 µg/mL throughout.

On to `CN(C)CC(=O)NCc1cc(N(C)C)c2c(c1O)C(=O)C1=C(O)[C@]3(O)C(=O)C(C(N)=O)=C(O)[C@@H](N(C)C)[C@@H]3C[C@@H]1C2`, for which the MIC was < 4 µg/mL in assay [1] (setting [7]) and > 4 µg/mL in assay [2] (setting [8]).

Take `CN(C)[C@@H]1C(O)=C(C(N)=O)C(=O)[C@@]2(O)C(O)=C3C(=O)c4c(ccc(NC5CC(C)(C)NC(C)(C)C5)c4O)C[C@H]3C[C@@H]12` [LF]: the MIC in assay [1] (setting [5]) was < 4 µg/mL; in assay [2] (setting [6]), > 4 µg/mL.

With `CN(C)[C@@H]1C(O)=C(C(N)=O)C(=O)[C@@]2(O)C(O)=C3C(=O)c4c(O)ccc(CNC5CCNCC5)c4C[C@H]3C[C@@H]12` [LD], the MIC in assay [1] (setting [5]) and in assay [2] (setting [6]) was > 4 µg/mL in each case.

On to `CN(C)[C@H]1C(O)=C(C(N)=O)C(=O)[C@@]2(O)C(O)=C3C(=O)c4c(O)ccc(-c5ncccn5)c4C[C@H]3C[C@@H]12` [PX], for which the MIC in assay [1] (setting [5]) was < 4 µg/mL; in assay [2] (setting [6]) it was > 4 µg/mL.

In the case of `CN(C)c1cc(CN(Cc2ccn[nH]2)Cc2ccn[nH]2)c(O)c2c1C[C@H]1C[C@H]3[C@H](N(C)C)C(O)=C(C(N)=O)C(=O)[C@@]3(O)C(O)=C1C2=O`, the MIC in assay [1] (setting [7]) and in assay [2] (setting [8]) was > 4 µg/mL in each case.

Regarding `CCc1cc(N)c(O)c2c1C[C@H]1C[C@H]3[C@H](N(C)C)C(O)=C(C(N)=O)C(=O)[C@@]3(O)C(O)=C1C2=O`, the MIC in assay [1] (setting [7]) and in assay [2] (setting [8]) was < 4 µg/mL throughout.

In the case of `COC(=O)C(=O)Nc1ccc(-c2ccc(O)c3c2C[C@H]2C[C@H]4[C@H](N(C)C)C(O)=C(C(N)=O)C(=O)[C@@]4(O)C(O)=C2C3=O)cc1`, the results for the MIC in assay [1] (setting [7]) and in assay [2] (setting [8]) were < 4 µg/mL and > 4 µg/mL, respectively.

As to `CC(=O)c1cccc(-c2ccc(O)c3c2C[C@H]2C[C@H]4[C@H](N(C)C)C(O)=C(C(N)=O)C(=O)[C@@]4(O)C(O)=C2C3=O)c1` [AO], the MIC in assay [1] (setting [5]) is < 4 µg/mL; in assay [2] (setting [6]), > 4 µg/mL.

With `CN(C)CC(=O)Nc1ccc2c(c1O)C(=O)C1=C(O)[C@]3(O)C(=O)C(C(N)=O)=C(O)[C@@H](N(C)C)[C@@H]3C[C@@H]1C2` [DW], the MIC in assay [1] (setting [5]) and in assay [2] (setting [6]) was < 4 µg/mL in each case.

For `CC(=O)c1ccc(O)c2c1C[C@H]1C[C@H]3[C@H](N(C)C)C(O)=C(C(N)=O)C(=O)[C@@]3(O)C(O)=C1C2=O` [BJ], the MIC in assay [1] (setting [5]) and in assay [2] (setting [6]) was < 4 µg/mL in each case.

Consider `CCOc1ccc(-c2ccc(O)c3c2C[C@H]2C[C@H]4C(N(C)C)C(O)=C(C(N)=O)C(=O)[C@@]4(O)C(O)=C2C3=O)cc1CNC(=O)C(F)(F)F` (some centres unmarked) [HS], for which the figures for the MIC in assay [1] (setting [5]) and in assay [2] (setting [6]) were < 4 µg/mL and > 4 µg/mL, respectively.

As to `CN(C)[C@@H]1C(O)=C(C(N)=O)C(=O)[C@@]2(O)C(O)=C3C(=O)c4c(ccc(NCCNC(C)(C)C)c4O)C[C@H]3C[C@@H]12`, the MIC in assay [1] (setting [7]) and in assay [2] (setting [8]) was < 4 µg/mL in each case.

Turning to `CN(C)[C@@H]1C(O)=C(C(N)=O)C(=O)[C@@]2(O)C(O)=C3C(=O)c4c(O)c(CN5CCCCC5)cc(-c5ccoc5)c4C[C@H]3C[C@@H]12` [drawing 3602], the MIC in assay [1] (setting [7]) was < 4 µg/mL; in assay [2] (setting [8]), > 4 µg/mL.

Consider `CN(C)C1C(O)=C(C(N)=O)C(=O)[C@@]2(O)C(O)=C3C(=O)c4c(O)ccc(NS(C)(=O)=O)c4C[C@H]3C[C@@H]12` (some centres unmarked) [JS], for which the values for the MIC in assay [1] (setting [5]) and in assay [2] (setting [6]) were < 4 µg/mL and > 4 µg/mL, respectively.

Take `CN(C)[C@@H]1C(O)=C(C(N)=O)C(=O)[C@@]2(O)C(O)=C3C(=O)c4c(O)ccc(-c5cc6ccccc6o5)c4C[C@H]3C[C@@H]12` [drawing 3387]: the MIC in assay [1] (setting [7]) was < 4 µg/mL; in assay [2] (setting [8]), > 4 µg/mL.

`CC(=O)NCc1cc(N(C)C)c2c(c1O)C(=O)C1=C(O)[C@]3(O)C(=O)C(C(N)=O)=C(O)C(N(C)C)[C@@H]3C[C@@H]1C2` (some centres unmarked) [DR]: the MIC in assay [1] (setting [5]) is < 4 µg/mL; in assay [2] (setting [6]) it was > 4 µg/mL.

For the molecule `CN(C)[C@@H]1C(O)=C(C(N)=O)C(=O)[C@@]2(O)C(O)=C3C(=O)c4c(O)ccc(-c5cncnc5)c4C[C@H]3C[C@@H]12` [NL], the MIC in assay [1] (setting [5]) and in assay [2] (setting [6]) was < 4 µg/mL in each case.

With `CN(C)[C@@H]1C(O)=C(C(N)=O)C(=O)[C@@]2(O)C(O)=C3C(=O)c4c(O)ccc(-c5ccc(F)c(F)c5)c4C[C@H]3C[C@@H]12`, the MIC in assay [1] (setting [7]) and in assay [2] (setting [8]) was < 4 µg/mL throughout.

As for `CCCCCc1ccc(O)c2c1C[C@H]1C[C@H]3C(N(C)C)C(O)=C(C(N)=O)C(=O)[C@@]3(O)C(O)=C1C2=O` (some centres unmarked), the MIC in assay [1] (setting [3]) and in assay [2] (setting [4]) was < 4 µg/mL each time.

Take `CN(C)[C@@H]1C(O)=C(C(N)=O)C(=O)[C@@]2(O)C(O)=C3C(=O)c4c(O)c(-c5ccc6c(c5)OCO6)cc(-c5ccc6c(c5)OCO6)c4C[C@H]3C[C@@H]12`: the MIC is < 4 µg/mL in assay [1] (setting [7]) and > 4 µg/mL in assay [2] (setting [8]).

`CN(C)c1ccc(O)c2c1C[C@H]1C[C@H]3[C@H](N(C)C)C(O)=C(C(N)=O)C(=O)[C@@]3(O)C(O)=C1C2=O` [B]: the MIC in assay [1] (setting [5]) and in assay [2] (setting [6]) was < 4 µg/mL in each case.

Regarding `CN(C)[C@@H]1C(O)=C(C(N)=O)C(=O)[C@@]2(O)C(O)=C3C(=O)c4c(ccc(NC(=O)Oc5ccc(F)cc5)c4O)C[C@H]3C[C@@H]12`, the MIC in assay [1] (read-out: Gram+ activity) and in assay [2] (read-out: Gram− activity) was > 4 µg/mL each time.

For the molecule `C[C@H]1c2ccc(NC3CC(C)(C)NC(C)(C)C3)c(O)c2C(=O)C2=C(O)[C@]3(O)C(=O)C(C(N)=O)=C(O)[C@@H](N(C)C)[C@@H]3[C@@H](O)[C@@H]21`, the MIC in assay [1] (setting [7]) was < 4 µg/mL; in assay [2] (setting [8]) it was > 4 µg/mL.

Take `CCNCC(=O)NCc1cc(N(C)C)c2c(c1O)C(=O)C1=C(O)[C@]3(O)C(=O)C(C(N)=O)=C(O)[C@@H](N(C)C)[C@@H]3C[C@@H]1C2`: the MIC in assay [1] (setting [7]) and in assay [2] (setting [8]) was > 4 µg/mL each time.

With `Cc1ccc(C#Cc2ccc(O)c3c2C[C@H]2C[C@H]4[C@H](N(C)C)C(O)=C(C(N)=O)C(=O)[C@@]4(O)C(O)=C2C3=O)cc1`, the MIC in assay [1] (setting [3]) and in assay [2] (setting [4]) was < 4 µg/mL throughout.

Regarding `CCC(=O)Nc1ccc2c(c1O)C(=O)C1=C(O)[C@]3(O)C(=O)C(C(N)=O)=C(O)[C@@H](N(C)C)[C@@H]3C[C@@H]1C2`, the MIC in assay [1] (setting [7]) and in assay [2] (setting [8]) was < 4 µg/mL each time.

Turning to `CN(C)c1cc(NC(=S)Nc2ccc([N+](=O)[O-])cc2)c(O)c2c1C[C@H]1C[C@H]3[C@H](N(C)C)C(O)=C(C(N)=O)C(=O)[C@@]3(O)C(O)=C1C2=O` [DA], the MIC in assay [1] (setting [5]) is < 4 µg/mL; in assay [2] (setting [6]) it was > 4 µg/mL.

For `CN(C)[C@H]1C(O)=C(C(N)=O)C(=O)[C@@]2(O)C(O)=C3C(=O)c4c(O)ccc(-c5ccc(NC(=O)C(C)(C)C)cc5)c4C[C@H]3C[C@@H]12` [GT], the MIC in assay [1] (setting [5]) is < 4 µg/mL; in assay [2] (setting [6]), > 4 µg/mL.

Consider `CC1c2c(-c3ccc(Cl)cc3)ccc(O)c2C(=O)C2=C(O)[C@]3(O)C(=O)C(C(N)=O)=C(O)[C@@H](N(C)C)[C@@H]3[C@@H](O)[C@@H]21` (some centres unmarked), for which the MIC in assay [1] (setting [3]) and in assay [2] (setting [4]) was < 4 µg/mL each time.

In the case of `O=c1cc(-c2ccc(F)cc2)oc2ccccc12`, the MIC in assay [1] (setting [7]) and in assay [2] (setting [8]) was < 4 µg/mL throughout.

With `CN(C)[C@@H]1C(O)=C(C(N)=O)C(=O)[C@@]2(O)C(O)=C3C(=O)c4c(O)ccc(-c5cncc(CO)c5)c4C[C@H]3C[C@@H]12`, the MIC in assay [1] (setting [7]) was < 4 µg/mL; in assay [2] (setting [8]), > 4 µg/mL.
